Data published in the Kinase Knowledgebase extract (Sharma et al. 2016).

What was measured:
PIK3CD (Human) = PIK3CD (Human) (UniProt O00329); test: Assessment of PIK3CD Kinase Activity
PIK3CG (human) = PIK3CG (human) (UniProt P48736); test: Assessment of PIK3CG Kinase Activity
PIK3CB (Human) = PIK3CB (Human) (UniProt P42338); test: Assessment of PIK3CB Kinase Activity
PIK3CA (human) = PIK3CA (human) (UniProt P42336); test: Assessment of PIK3CA Kinase Activity
PIK3CA (human), sequence (P42336 whole entry, looked up): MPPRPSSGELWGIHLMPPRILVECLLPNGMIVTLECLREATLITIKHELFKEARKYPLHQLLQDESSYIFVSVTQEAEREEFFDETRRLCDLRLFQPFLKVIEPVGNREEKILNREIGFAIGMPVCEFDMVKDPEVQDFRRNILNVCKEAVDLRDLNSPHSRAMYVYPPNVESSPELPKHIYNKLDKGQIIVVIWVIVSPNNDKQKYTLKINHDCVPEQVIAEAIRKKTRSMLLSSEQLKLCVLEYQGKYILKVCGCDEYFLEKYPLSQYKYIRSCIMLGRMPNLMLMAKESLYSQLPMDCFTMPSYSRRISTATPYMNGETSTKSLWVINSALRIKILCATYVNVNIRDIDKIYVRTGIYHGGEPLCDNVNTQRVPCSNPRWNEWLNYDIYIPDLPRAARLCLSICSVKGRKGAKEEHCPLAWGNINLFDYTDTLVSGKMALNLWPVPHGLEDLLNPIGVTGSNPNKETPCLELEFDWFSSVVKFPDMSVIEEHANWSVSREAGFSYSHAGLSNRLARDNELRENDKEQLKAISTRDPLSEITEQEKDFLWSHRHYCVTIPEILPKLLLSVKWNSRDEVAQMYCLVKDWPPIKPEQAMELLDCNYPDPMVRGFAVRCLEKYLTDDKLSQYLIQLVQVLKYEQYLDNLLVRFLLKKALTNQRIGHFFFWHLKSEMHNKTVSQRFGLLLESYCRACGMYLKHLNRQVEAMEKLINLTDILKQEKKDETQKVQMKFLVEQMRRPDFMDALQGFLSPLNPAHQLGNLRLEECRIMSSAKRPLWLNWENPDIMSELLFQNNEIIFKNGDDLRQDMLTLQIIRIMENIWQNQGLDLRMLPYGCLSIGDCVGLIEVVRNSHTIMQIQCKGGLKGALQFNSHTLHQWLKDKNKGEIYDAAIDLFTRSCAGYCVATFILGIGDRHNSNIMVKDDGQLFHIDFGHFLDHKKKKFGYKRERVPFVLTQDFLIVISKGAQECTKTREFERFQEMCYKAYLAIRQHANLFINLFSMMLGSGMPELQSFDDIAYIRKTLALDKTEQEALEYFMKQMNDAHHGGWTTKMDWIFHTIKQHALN

PIK3CD (Human), sequence (O00329 whole entry, looked up): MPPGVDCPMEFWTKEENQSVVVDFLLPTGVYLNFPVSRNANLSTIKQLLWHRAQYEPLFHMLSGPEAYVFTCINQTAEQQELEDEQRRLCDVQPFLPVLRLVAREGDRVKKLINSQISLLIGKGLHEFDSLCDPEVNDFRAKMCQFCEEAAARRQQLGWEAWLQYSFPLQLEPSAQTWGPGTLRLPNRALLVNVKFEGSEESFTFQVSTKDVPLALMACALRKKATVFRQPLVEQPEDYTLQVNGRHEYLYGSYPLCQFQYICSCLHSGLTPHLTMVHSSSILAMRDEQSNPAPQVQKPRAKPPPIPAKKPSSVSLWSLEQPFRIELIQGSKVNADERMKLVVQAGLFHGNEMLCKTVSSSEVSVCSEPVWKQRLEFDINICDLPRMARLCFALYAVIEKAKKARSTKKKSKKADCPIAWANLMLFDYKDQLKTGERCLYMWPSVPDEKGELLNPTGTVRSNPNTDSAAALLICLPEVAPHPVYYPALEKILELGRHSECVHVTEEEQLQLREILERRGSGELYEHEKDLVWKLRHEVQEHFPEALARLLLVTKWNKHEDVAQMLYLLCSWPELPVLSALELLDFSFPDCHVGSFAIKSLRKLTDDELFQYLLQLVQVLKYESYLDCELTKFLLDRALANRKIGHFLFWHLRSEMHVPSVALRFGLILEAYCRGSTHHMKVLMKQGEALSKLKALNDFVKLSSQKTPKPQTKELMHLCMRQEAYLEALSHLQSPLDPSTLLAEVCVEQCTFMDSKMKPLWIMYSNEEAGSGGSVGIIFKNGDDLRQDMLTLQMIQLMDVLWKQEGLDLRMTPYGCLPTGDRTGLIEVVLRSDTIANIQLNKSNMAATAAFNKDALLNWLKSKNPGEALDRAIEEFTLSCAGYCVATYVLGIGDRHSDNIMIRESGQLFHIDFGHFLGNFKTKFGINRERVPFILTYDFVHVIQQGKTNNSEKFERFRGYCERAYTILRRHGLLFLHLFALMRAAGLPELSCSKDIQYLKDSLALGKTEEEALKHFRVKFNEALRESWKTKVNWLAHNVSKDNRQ
PIK3CB (Human), sequence (P42338 whole entry, looked up): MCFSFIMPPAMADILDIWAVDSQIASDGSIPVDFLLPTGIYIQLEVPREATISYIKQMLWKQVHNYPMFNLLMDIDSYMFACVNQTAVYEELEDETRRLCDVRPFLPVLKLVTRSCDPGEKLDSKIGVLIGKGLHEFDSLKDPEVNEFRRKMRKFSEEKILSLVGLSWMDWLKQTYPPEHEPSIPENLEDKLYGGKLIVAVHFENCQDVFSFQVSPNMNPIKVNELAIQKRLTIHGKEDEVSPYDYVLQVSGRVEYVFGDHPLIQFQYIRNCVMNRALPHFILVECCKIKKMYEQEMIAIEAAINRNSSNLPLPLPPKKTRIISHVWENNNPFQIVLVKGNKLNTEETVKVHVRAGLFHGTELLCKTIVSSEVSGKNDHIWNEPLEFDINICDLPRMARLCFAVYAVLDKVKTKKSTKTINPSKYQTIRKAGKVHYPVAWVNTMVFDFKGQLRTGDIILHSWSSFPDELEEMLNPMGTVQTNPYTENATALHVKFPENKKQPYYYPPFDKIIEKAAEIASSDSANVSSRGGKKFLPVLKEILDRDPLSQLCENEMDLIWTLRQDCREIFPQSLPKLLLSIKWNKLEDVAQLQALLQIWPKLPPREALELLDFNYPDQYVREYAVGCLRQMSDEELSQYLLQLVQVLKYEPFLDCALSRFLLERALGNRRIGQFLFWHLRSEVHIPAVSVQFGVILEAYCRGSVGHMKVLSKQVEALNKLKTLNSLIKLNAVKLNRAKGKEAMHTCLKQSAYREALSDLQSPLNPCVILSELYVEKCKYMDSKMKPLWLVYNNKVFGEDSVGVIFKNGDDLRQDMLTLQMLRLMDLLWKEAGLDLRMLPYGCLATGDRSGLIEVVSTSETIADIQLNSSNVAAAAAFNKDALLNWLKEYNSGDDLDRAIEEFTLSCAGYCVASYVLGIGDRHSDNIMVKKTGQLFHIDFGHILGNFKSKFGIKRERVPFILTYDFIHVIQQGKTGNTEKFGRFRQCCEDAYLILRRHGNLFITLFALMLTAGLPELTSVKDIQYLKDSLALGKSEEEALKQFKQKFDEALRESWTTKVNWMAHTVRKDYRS
PIK3CG (human), sequence (P48736 whole entry, looked up): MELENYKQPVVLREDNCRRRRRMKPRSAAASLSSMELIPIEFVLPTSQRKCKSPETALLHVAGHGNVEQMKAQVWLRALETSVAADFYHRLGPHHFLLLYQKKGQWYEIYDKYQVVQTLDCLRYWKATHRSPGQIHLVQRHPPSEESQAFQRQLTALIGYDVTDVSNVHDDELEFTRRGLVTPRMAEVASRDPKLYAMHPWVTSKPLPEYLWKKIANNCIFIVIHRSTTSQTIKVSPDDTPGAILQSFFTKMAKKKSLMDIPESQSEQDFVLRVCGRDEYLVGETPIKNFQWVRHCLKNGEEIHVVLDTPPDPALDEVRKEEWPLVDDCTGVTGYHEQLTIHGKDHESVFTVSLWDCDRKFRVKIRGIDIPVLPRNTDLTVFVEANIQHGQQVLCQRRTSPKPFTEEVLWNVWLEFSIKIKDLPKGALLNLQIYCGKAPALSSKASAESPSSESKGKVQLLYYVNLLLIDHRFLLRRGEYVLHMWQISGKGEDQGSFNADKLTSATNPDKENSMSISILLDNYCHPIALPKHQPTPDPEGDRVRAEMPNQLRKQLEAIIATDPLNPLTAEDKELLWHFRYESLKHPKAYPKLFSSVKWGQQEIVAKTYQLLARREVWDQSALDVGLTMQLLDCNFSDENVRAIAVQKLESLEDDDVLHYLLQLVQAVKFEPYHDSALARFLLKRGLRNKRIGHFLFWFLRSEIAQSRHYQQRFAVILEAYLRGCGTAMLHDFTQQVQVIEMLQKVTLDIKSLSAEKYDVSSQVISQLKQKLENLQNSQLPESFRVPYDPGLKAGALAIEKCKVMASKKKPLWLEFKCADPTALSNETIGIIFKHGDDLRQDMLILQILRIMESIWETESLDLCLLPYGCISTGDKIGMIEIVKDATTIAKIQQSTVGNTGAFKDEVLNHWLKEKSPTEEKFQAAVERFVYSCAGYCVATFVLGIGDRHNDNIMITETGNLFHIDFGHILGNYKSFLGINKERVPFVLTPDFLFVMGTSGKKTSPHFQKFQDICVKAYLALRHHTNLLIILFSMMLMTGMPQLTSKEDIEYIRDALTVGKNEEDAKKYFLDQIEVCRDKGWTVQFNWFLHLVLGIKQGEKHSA

| IC50 (PIK3CD (Human)) | IC50 (PIK3CG (human)) | IC50 (PIK3CB (Human)) | IC50 (PIK3CA (human)) | SMILES |
| --- | --- | --- | --- | --- |
| < 100 nM | < 100 nM | > 10000 nM | > 10000 nM | COc1ncc(-c2cccc3cc([C@H](C)Nc4ncnc5cccnc45)n(-c4ccccc4)c(=O)c23)cn1 |
| > 10000 nM | > 10000 nM | > 10000 nM | > 10000 nM | C[C@H](Nc1nc(O)nc2cccnc12)c1cc2cccc(C(F)(F)F)c2c(=O)n1-c1cccc(F)c1 |
| > 10000 nM | > 10000 nM | > 10000 nM | > 10000 nM | C[C@H](Nc1ccn2nccc2n1)c1cc2cccc(Cl)c2c(=O)n1-c1ccccc1 |
| < 100 nM | 100 to 1000 nM | > 10000 nM | > 10000 nM | CNc1nc(N[C@@H](C)c2cc3cccc(-c4cnc(OC)nc4)c3c(=O)n2-c2ccccc2)c2ncccc2n1 |
| 100 to 1000 nM | 100 to 1000 nM | > 10000 nM | > 10000 nM | CNc1nc(N[C@@H](C)c2cc3cccc(-c4cnc(C)nc4)c3c(=O)n2-c2ccccc2)c2ncccc2n1 |
| > 10000 nM | > 10000 nM | > 10000 nM | > 10000 nM | C[C@H](Nc1nc(Cl)ns1)c1cc2cccc(Cl)c2c(=O)n1-c1ccccc1 |
| < 100 nM | 100 to 1000 nM | 100 to 1000 nM | > 10000 nM | C[C@H](Nc1ncnc2cccnc12)c1cc2cccc(Cl)c2c(=O)n1CCN1CCCC1 |
| < 100 nM | < 100 nM | < 100 nM | 100 to 1000 nM | C[C@H](Nc1ccnn2ccnc12)c1cc2cccc(Cl)c2c(=O)n1-c1ccccc1 |
| < 100 nM | < 100 nM | < 100 nM | 100 to 1000 nM | C[C@H](Nc1cc(N)ncc1C(N)=O)c1cc2cccc(Cl)c2c(=O)n1-c1ccccc1 |
| < 100 nM | < 100 nM | > 10000 nM | > 10000 nM | COc1ncc(-c2cccc3cc([C@H](C)Nc4nc(N)nc5cccnc45)n(-c4ccccc4)c(=O)c23)cn1 |
| > 10000 nM | > 10000 nM | > 10000 nM | > 10000 nM | C[C@H](Nc1ncc(C(F)(F)F)c(N)n1)c1cc2cccc(Cl)c2c(CCN2CCOCC2)n1 |
| < 100 nM | < 100 nM | > 10000 nM | > 10000 nM | C[C@H](Nc1ncnc(N)c1C#N)c1cc2cccc(C(F)(F)F)c2c(=O)n1-c1ccccc1 |
| < 100 nM | < 100 nM | > 10000 nM | 100 to 1000 nM | COc1cncc(-c2cccc3cc([C@H](C)Nc4ncnc5cccnc45)n(-c4ccccc4)c(=O)c23)c1 |
| < 100 nM | < 100 nM | 100 to 1000 nM | > 10000 nM | C[C@H](Nc1ncnc2[nH]cc(C#N)c12)c1cc2cccc(C(F)(F)F)c2c(=O)n1-c1ccccc1 |
| < 100 nM | < 100 nM | 100 to 1000 nM | 100 to 1000 nM | C[C@H](Nc1nc(N)nc2cccnc12)c1cc2cccc(-c3cnc4[nH]ccc4c3)c2c(=O)n1-c1ccccc1 |
| < 100 nM | < 100 nM | < 100 nM | 100 to 1000 nM | C[C@H](Nc1ncnc2scnc12)c1cc2cccc(C(F)(F)F)c2c(=O)n1-c1ccccc1 |
| > 10000 nM | > 10000 nM | > 10000 nM | > 10000 nM | C[C@H](Nc1nccc2nccn12)c1cc2cccc(Cl)c2c(=O)n1-c1ccccc1 |
| 100 to 1000 nM | < 100 nM | > 10000 nM | > 10000 nM | CNc1cccc2cc([C@H](C)Nc3nc(N)nc4cccnc34)n(-c3ccccc3)c(=O)c12 |
| < 100 nM | < 100 nM | > 10000 nM | > 10000 nM | Cc1ncc(-c2cccc3cc([C@H](C)Nc4nc(N)nc5cccnc45)n(-c4ccccc4)c(=O)c23)cn1 |
| < 100 nM | < 100 nM | 100 to 1000 nM | 100 to 1000 nM | C[C@H](Nc1ncnc2cccnc12)c1cc2cccc(Cl)c2c(=O)n1-c1cccc(F)c1 |
| 100 to 1000 nM | 100 to 1000 nM | > 10000 nM | > 10000 nM | C[C@H](Nc1cc(Cl)nn2ccnc12)c1cc2cccc(-c3cnn(C)c3)c2c(=O)n1-c1cccc(F)c1 |
| > 10000 nM | > 10000 nM | > 10000 nM | > 10000 nM | COc1ncc(-c2cccc3cc([C@H](C)Nc4nc(OC)nc5cccnc45)n(-c4ccccc4)c(=O)c23)cn1 |
| 100 to 1000 nM | 100 to 1000 nM | > 10000 nM | > 10000 nM | C[C@H](Nc1cc(Cl)ncc1C(N)=O)c1cc2cccc(Cl)c2c(=O)n1-c1ccccc1 |
| 100 to 1000 nM | 100 to 1000 nM | > 10000 nM | > 10000 nM | C[C@H](Nc1nc(Cl)nc2cccnc12)c1cc2cccc(-c3cnn(C)c3)c2c(=O)n1-c1cccc(F)c1 |
| > 10000 nM | > 10000 nM | > 10000 nM | > 10000 nM | COc1nc(N[C@@H](C)c2cc3cccc(Cl)c3c(=O)n2-c2ccccc2)c2ncccc2n1 |
| > 10000 nM | > 10000 nM | > 10000 nM | > 10000 nM | COc1ncc(-c2cccc3cc([C@H](C)Nc4nc(O)nc5cccnc45)n(-c4ccccc4)c(=O)c23)cn1 |
